# Key:
# Assay type in all cases: in vivo
# [1] = system: cats suffering from GI-specific inflammation; test: Example 3: GI-specific inflammation, owner-rated symptom reduction (feline); details: symptom reduction score 0 (no reduction) to 4 (resolution of symptoms); for Final Score: after 28 days BID
# Description: (§1) This example examines the ability of embodiments of the invention versus Pepcid® to treat unwanted GI-specific inflammation characterized by gastritis, reflux, vomiting, diarrhea, and inappetence.
# (§2) The first patient group is twenty dogs suffering from GI-specific inflammation. The second patient group is twenty cats suffering from GI-specific inflammation. Each patient group is broken into five groups of four animals. The first groups receive Pepcid® as the sole active agent; the second groups receive a composition comprising HMW HA as the sole active agent; the third groups receive a composition comprising CBD as the sole active agent; the fourth groups receive a composition comprising HMW HA and CBD as the active agents; and the fifth groups receive a composition comprising HMW HA, CBD, and glutathione as the active agents.
# (§3) Each composition is administered for a period of twenty-eight (28) days, BID. The owner observes potential reduction of symptoms at the end of treatment and rates the reduction as no reduction (score of 0), mild reduction (score of 1), moderate reduction (score of 2), significant reduction (score of 3), or resolution of symptoms (score of 4).
# The following feline scores are observed and the results depicted in FIG. 3b: […]
# [2] = system: cats suffering behavior aberrations and/or anxiety; test: Example 5: behavior aberrations and anxiety, Fe-BARQ (feline); details: Fe-BARQ day 0 vs 60, SID, 0 (no improvement) to 3 (marked improvement)
# Description: (§4) This example examines the ability of embodiments of the invention versus Clomicalm® to reduce behavior aberrations and anxiety.
# The first patient group is twenty dogs suffering behavior aberrations and/or anxiety, as determined by the canine behavioral assessment and research questionnaire (“C-BARQ”). See, e.g., P. Wiener et al., Use of questionnaire-based data to assess dog personality, 16 JOURNAL OF VETERINARY BEHAVIOR 81-85 (2016). The second patient group is twenty cats suffering behavior aberrations and/or anxiety, as determined by the feline behavioral assessment and research questionnaire (“Fe-BARQ”).
# (§5) Each group is broken into five groups of four animals. The first group receives Clomicalm® as the sole active agent; the second group receives a composition comprising HMW HA as the sole active agent; the third group receives a composition comprising CBD as the sole active agent; the fourth group receives a composition comprising HMW HA and CBD as the active agents; and the fifth group receives a composition comprising HMW HA, CBD, valerian root, and scutillaria as the active agents.
# (§6) Each composition is administered for a period of sixty (60) days, once a day (“SID”). Owners complete the species-appropriate C-BARQ or Fe-BARQ on days 0 and 60 of treatment. The results from the overall questionnaire are averaged and characterized as no improvement (score of 0), mild improvement (score of 1), moderate improvement (score of 2), or marked improvement (score of 3).
# The following feline scores are observed and the results depicted in FIG. 5b: […]
# [3] = system: cats suffering from GI-specific inflammation; test: Example 11: GI-specific inflammation, owner-rated symptom reduction; details: species not given, symptom reduction score 0 to 4; for Final Score: after 28 days BID
# Description: as §1
# as §2, with “and CBD Complex as the” for “and CBD as the”, “HMW HA, CBD Complex, and glutathione” for “HMW HA, CBD, and glutathione”
# as §3
# [4] = system: cats suffering behavior aberrations and/or anxiety; test: Example 13: behavior aberrations and anxiety, Fe-BARQ (feline, CBD Complex); details: Fe-BARQ day 0 vs 60, SID, 0 (no improvement) to 3 (marked improvement)
# Description: as §4
# The first patient group is twenty dogs suffering behavior aberrations and/or anxiety, as determined by the canine behavioral assessment and research questionnaire (“C-BARQ”). […] The second patient group is twenty cats suffering behavior aberrations and/or anxiety, as determined by the feline behavioral assessment and research questionnaire (“Fe-BARQ”).
# as §5, with “and CBD Complex as the” for “and CBD as the”, “HMW HA, CBD Complex, valerian root,” for “HMW HA, CBD, valerian root,”
# as §6
# [5] = system: dogs suffering from seizures; test: Example 14: seizures in dogs (CBD Complex); details: seizure scale 1 (seizure-free) to 10 (daily or multiple seizures); for Initial Score: day 0; for Final Score: day 60, BID
# Description: This example examines the ability of embodiments of the invention versus phenobarbital to treat seizures.
# (§7) The patient group is twenty-four dogs suffering from seizures as diagnosed by their referring veterinarian. The patient group is broken into six groups of four animals. The first group receives phenobarbital as the sole active agent; the second group receives a composition comprising phenobarbital and Keppra®; the third group receives a composition comprising HMW HA as the sole active agent; the fourth group receives a composition comprising CBD as the sole active agent; the fifth group receives a composition comprising HMW HA and CBD Complex as the active agents; and the sixth group receives a composition comprising HMW HA, CBD Complex, valerian root, and scutillaria as the active agents.
# Each composition is administered for a period of sixty (60) days, BID. Each dog is evaluated on days 0 (“Initial Score”), 15, 30, 45, and 60 (“Final Score”) of treatment. The results are averaged and characterized on a scale of 1 (seizure-free) to 10 (daily seizures or multiple seizures during the event).
# The following canine scores are observed and the results depicted in FIG. 14: […]
# [6] = system: dogs suffering from heart failure; test: Example 15: heart failure in dogs (CBD Complex); details: heart failure scale 1 (few to no clinical signs) to 10 (severe); for Initial Score: day 0; for Final Score: day 90, BID
# Description: This example examines the ability of embodiments of the invention versus enalapril to treat heart failure.
# The patient group is twenty-four dogs suffering from heart failure.
# as §7, with “The” for “The patient group is twenty-four dogs suffering from seizures as diagnosed by their referring veterinarian. The”, “dogs.” for “animals.”, “enalapril” for “phenobarbital”, “Lasix®;” for “Keppra®;”, “liposomal CoQ10, hawthorn berry,” for “valerian root,”, “ginko biloba” for “scutillaria”
# Each composition is administered for a period of ninety (90) days, BID. Each animal is evaluated on days 0 (“Initial Score”), 30, 60, and 90 (“Final Score”) of treatment. The results are averaged and characterized on a scale of 1 (few to no clinical signs of heart failure) to 10 (severe heart failure).
Molecule,Final Score [1],Initial Score [1],Improvement Score [2],Final Score [3],Initial Score [3],Improvement Score [4],Initial Score [5],Final Score [5],Initial Score [6],Final Score [6]
"C=C(C)[C@@H]1CCC(C)=C[C@H]1c1c(O)cc(CCCCC)cc1O [CBD Alone, 2-[(1R,6R)-3-methyl-6-prop-1-en-2-ylcyclohex-2-en-1-yl]-5-pentylbenzene-1,3-diol]",2,0,1.8,2,0,1.8,9,4,8,4
hyaluronic acid [HMW HA Alone],3,0,1,3,0,1,9,5,8,4

# — US20220054532A1, “VETERINARY COMPOSITIONS AND METHODS OF USE THEREFOR” (priority 2019, published 2022)
